Values of other authors as cited in patent US11724007B2, “Operating room coating applicator and method” (Ethicon, Inc., priority 2018, dated 2023).

Test system: S. aureus
Settings: measured in a suitable growth medium; described by Bhargava, H. et al, American Journal of Infection Control, June 1996

For `Oc1cc(Cl)ccc1Oc1ccc(Cl)cc1Cl` [triclosan, 2,4,4′-trichloro-2′-hydroxydiphenyl ether], which “minimum inhibitory concentration (MIC) against S. aureus” value is on record?
The value was 0.01 ppm.
